According to patent US8058276B2, “Heterobicyclic carboxamides as inhibitors for kinases” (Novartis AG, priority 2006, dated 2011):

| SMILES | melting point |
| --- | --- |
| Nc1nccc(Oc2ccc3c(C(=O)Nc4ccc(F)c(C(F)(F)F)c4)nsc3c2)n1 [Example 6, 6-(2-Amino-pyrimidin-4-yloxy)-benzo[d]isothiazole-3-carboxylic acid (4-fluoro-3-trifluoromethyl-phenyl)-amide] | 237 to 239 °C |
| CN1CCN(Cc2ccc(NC(=O)c3nsc4cc(Oc5ccnc(N)n5)ccc34)cc2C(F)(F)F)CC1 [Example 7, 6-(2-Amino-pyrimidin-4-yloxy)-benzo[d]isothiazole-3-carboxylic acid [4-(4-methyl-piperazin-1-ylmethyl)-3-trifluoromethyl-phenyl]-amide] | 215 to 217 °C |
| Nc1nccc(Oc2ccc3c(C(=O)Nc4cccc(C(F)(F)F)c4)cnn3c2)n1 [Example 15, 6-(2-Amino-pyrimidin-4-yloxy)-pyrazolo[1,5-a]pyridine-3-carboxylic acid (3-trifluoromethyl-phenyl)-amide] | 102 to 104 °C |

More lines, now with the values ahead:

| melting point | SMILES |
| --- | --- |
| 138 to 140 °C | O=C(Nc1ccc(F)c(C(F)(F)F)c1)c1csc2cc(Oc3cc(CO)ncn3)ccc12 [Example 19, 6-(6-Hydroxymethyl-pyrimidin-4-yloxy)-benzo[b]thiophene-3-carboxylic acid (4-fluoro-3-trifluoromethyl-phenyl)-amide] |
| 181 to 182 °C | O=C(Nc1cccc(C(F)(F)F)c1)c1coc2cc(Oc3cc(CO)ncn3)ccc12 [Example 22, 6-(6-Hydroxymethyl-pyrimidin-4-yloxy)-benzofuran-3-carboxylic acid (3-trifluoromethyl-phenyl)-amide] |
